Test results reported in ChEMBL document CHEMBL1133395, “Novel oximes having 5-benzyl-2,4-thiazolidinedione as antihyperglycemic agents: synthesis and structure-activity relationship” (Bioorg Med Chem Lett, 2000).

Columns and labels:
[1] = target: T1, Peroxisome proliferator-activated receptor gamma (Homo sapiens, UniProt P37231)
T1 sequence (P37231 whole entry): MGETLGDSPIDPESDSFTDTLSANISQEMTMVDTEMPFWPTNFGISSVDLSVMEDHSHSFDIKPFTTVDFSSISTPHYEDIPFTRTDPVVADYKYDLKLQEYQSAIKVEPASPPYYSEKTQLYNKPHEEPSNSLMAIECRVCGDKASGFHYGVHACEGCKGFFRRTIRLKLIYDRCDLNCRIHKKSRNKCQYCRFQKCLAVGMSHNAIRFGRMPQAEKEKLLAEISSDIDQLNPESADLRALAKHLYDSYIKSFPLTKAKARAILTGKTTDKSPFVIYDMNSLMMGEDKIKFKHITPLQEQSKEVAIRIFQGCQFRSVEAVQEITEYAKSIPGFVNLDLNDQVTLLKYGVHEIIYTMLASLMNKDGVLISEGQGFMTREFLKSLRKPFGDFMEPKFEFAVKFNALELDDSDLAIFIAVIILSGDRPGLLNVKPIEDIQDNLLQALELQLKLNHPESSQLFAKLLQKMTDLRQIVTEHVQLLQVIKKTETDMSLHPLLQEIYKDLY
Description: Peroxisome proliferator activated receptor gamma agonistic activity in HepG2 cells.

Mus musculus = organism: Mus musculus; test: Blood glucose lowering activity in hyperglycemic kk mice.; format: functional; design: concentration or dose not given beside the values

Structure (SMILES) | EC50 [1] | Change (Mus musculus)
CC/C(=N\OCCOc1ccc(CC2SC(=O)NC2=O)cc1)c1ccc(-c2ccccc2)cc1 (stereo not drawn) | 1600 nM | 67%
C/C(=N\OCCOc1ccc(CC2SC(=O)NC2=O)cc1)c1ccc(-c2ccncc2)cc1 (stereo not drawn) | 1600 nM | 44%
CCC/C(=N\OCCOc1ccc(CC2SC(=O)NC2=O)cc1)c1ccc(-c2ccccc2)cc1 (stereo not drawn) | > 100000 nM | 29%
C/C(=N\OCCOc1ccc(CC2SC(=O)NC2=O)cc1)c1ccccc1-c1ccccc1 (stereo not drawn) | > 100000 nM | 23%
C/C(=N\OCCOc1ccc(CC2SC(=O)NC2=O)cc1)c1ccc(-c2ccccc2)nc1 (stereo not drawn) |  | 58%
C/C(=N\OCCOc1ccc(CC2SC(=O)NC2=O)cc1)c1ccc(-c2ccccc2)cn1 (stereo not drawn) | 1100 nM | 61%
C/C(=N\OCCCOc1ccc(CC2SC(=O)NC2=O)cc1)c1ccc(-c2ccccc2)cc1 (stereo not drawn) | > 100000 nM | 20%
C/C(=N\OCCOc1ccc(CC2SC(=O)NC2=O)cc1)c1ccc(-c2ccccc2)cc1 (stereo not drawn) | 400 nM | 67%
C/C(=N\OCCOc1ccc(CC2SC(=O)NC2=O)cc1)c1ccccn1 (stereo not drawn) | 2800 nM | 67%
C/C(=N\OCCOc1ccc(CC2SC(=O)NC2=O)cc1)c1ccncc1 (stereo not drawn) | 7900 nM | 48%
C/C(=N\OCCOc1ccc(CC2SC(=O)NC2=O)cc1)c1cccc(-c2ccccc2)c1 (stereo not drawn) | 330 nM | 42%
C/C(=N\OCCOc1ccc(CC2SC(=O)NC2=O)cc1)c1ccc(-c2cccnc2)cc1 (stereo not drawn) | 800 nM | 42%
C/C(=N\OCCOc1ccc(CC2SC(=O)NC2=O)cc1)c1ccc(-c2ccccn2)cc1 (stereo not drawn) | 640 nM | 58%
O=C1NC(=O)C(Cc2ccc(OCCO/N=C/c3ccc(-c4ccccc4)cc3)cc2)S1 (stereo not drawn) | > 100000 nM | 7%
C/C(=N\OCCOc1ccc(CC2SC(=O)NC2=O)cc1)c1ccccc1 (stereo not drawn) | 1700 nM | 57%
C/C(=N\OCCOc1ccc(CC2SC(=O)NC2=O)cc1)c1cccnc1 (stereo not drawn) | 2800 nM | 43%
CCc1ccc(CCOc2ccc(CC3SC(=O)NC3=O)cc2)nc1.Cl (stereo not drawn) [PIOGLITAZONE HYDROCHLORIDE] |  | 42%
CN(CCOc1ccc(CC2SC(=O)NC2=O)cc1)c1ccccn1.O=C(O)/C=C\C(=O)O (stereo not drawn) [ROSIGLITAZONE MALEATE] |  | 66%
